Source: the NIST ThermoML archive (doi:10.1021/je101264r)
Numbers after ± are expanded uncertainties.

Assay: mn = molality of the nth substance listed, in mol/kg
Details: 298.15 K, 101 kPa, Liquid, rubidium clock sound velocity meter

Nc1ncnc2c1ncn2[C@@H]1O[C@H](CO)[C@@H](O)[C@H]1O [β-adenosine] + O
Details	speed of sound [m/s]
m1 = 0.01701	1497.8 ± 0.03
m1 = 0.01736	1497.8 ± 0.03
m1 = 0.01799	1497.8 ± 0.03
m1 = 0.01851	1497.9 ± 0.03
m1 = 0.01911	1497.9 ± 0.03
m1 = 0.0195	1497.9 ± 0.03
m1 = 0.02001	1498 ± 0.03
m1 = 0.02054	1498 ± 0.03
